Results: patent US20030181507A1, “Use of 3-substituted oxindole derivatives as kcnq potassium channel modulators” (priority 2000, published 2003)

Key:
KCNQ4 [1] = molecular target: T1, KCNQ4 (Homo sapiens, UniProt P56696); experiment: Membrane potential in current clamp mode, KCNQ4 expressing cell; format: cell-based; details: FIG. 3; for membrane potential after addition of compound: 10 μM in bath solution, whole cell, initial resting potential around −60 mV, sequential additions to same cell
T1 construct: expressed in transfected cells; host or cells: HEK-293
Description: (§1) KCNQ4 and KCNQ5 was sub-cloned into the mammalian expression vector pNS1n (NeuroSearch), a custom-designed derivative of pcDNA3Neo (InVitrogen). HEK-293 cells (American Type Culture Collection) were grown in DMEM (Life Technologies) supplemented with 10% FCS (Life Technologies) at 37° C. in 5% CO2.
(§2) One day prior to transfection, 10^6 cells were plated in a cell culture T25 flask (Nunc). Cells were transfected with 2.5 μg of the plasmid pNS1n_KCNQ4 or with 2.5 μg of the plasmid pNS1n_KCNQ5 using Lipofectamine (Life Technologies) according to the manufacturer's instructions. Cells transfected with pNS1n_KCNQ4 or pNS1n_KCNQ5 were selected in media supplemented with 0.5 mg/ml geneticin (G418; Life Technologies).
(§3) Single clones were picked and propagated in selection media for five passages after which they were considered stable. Following the cells were cultured in regular medium without selection agent.
Expression of functional KCNQ4 channels or KCNQ5 channels was verified by patch-clamp measurements.
Transfected cells were cultured on glass cover slips (Ø=3 mm), which were transferred to a small recording chamber. The chamber was perfused with extracellular solutions at a rate of 1 ml/min giving rise to full exchange of the chamber volume (15 μl) each second.
Whole-cell currents were recorded using a HEKA EPC-9 amplifier and borosilicate glass micropipettes with tip resistances of 1.5-3 MΩ. Series resistances were below 5 MΩ, mostly stayed constant during the experiment and were compensated by 70%. The currents were not leak-subtracted.
All experiments were performed at room temperature (21-25° C.). Igor software (WaveMetrics, Lake Oswego, Oreg.) was used for the analysis.
The bath solution consisted of 144 mM NaCl, 4 mM KCl, 2 mM CaCl2, 1 mM MgCl2 and 10 mM HEPES (pH adjusted to 7.4). The pipette solution consisted of 144 mM KCl, 5.4 mM CaCl2, 1.8 mM MgCl2, 4 mM NaATP, 0.4 mM GTP, 10 mM EGTA and 10 mM HEPES (pH adjusted to 7.2).
The membrane potential was measured in current clamp mode using the whole cell configuration of the patch clamp technique. A resting membrane potential of around −60 mV was initially recorded from this cell and the addition of 10 μM Compound 1 to the bath solution induced a hyper-polarisation of the membrane potential to −83 mV.
After washout of Compound 1, the membrane potential returned to −69 mV, and subsequent addition of 10 μM Retigabine, a KCNQ activator, induced a faster but smaller hyperpolarisation to a membrane potential of −76 mV.
The compounds were present in the bath solution during the times indicated by the bars.

KCNQ5 = molecular target: T2, KCNQ5 (Homo sapiens, UniProt Q9NR82); experiment: Whole-cell voltage clamp of KCNQ5 stably expressed in HEK-293 cells; format: cell-based; details: 10 μM, holding −90 mV, step to −30 mV
T2 construct: expressed in transfected cells; host or cells: HEK-293
Description: as §1, §2, §3
Expression of functional KCNQ4 channels or KCNQ5 channels was verified by patch-clamp measurements. […]
(§4) Whole-cell currents were recorded using a HEKA EPC-9 amplifier and borosilicate glass micropipettes with tip resistances of 1.5-3 MΩ. […]
The currents were measured from a cell patch clamped in the whole-cell voltage clamp configuration. […]
The currents recorded in the absence (control) and in the presence of 10 μM of the reference M current blocker XE-991 is shown in the panel to the left.

KCNQ4 [2] = molecular target: T1, KCNQ4; experiment: Whole-cell voltage clamp of KCNQ4 stably expressed in HEK-293 cells; format: cell-based
Description: as §1, §2
Single clones were picked and propagated in selection media for five passages after which they were considered stable. Following the cells were cultured in regular medium without selection agent. […]
as §4
The currents were measured in voltage mode using the whole-cell configuration of the patch clamp technique. […]
The experimental conditions was as described above, but in this experiment the depolarising potential ranged from −120 mV to +40 mV before a step back to −120 mV where brief inward tail currents were recorded. […]

BK channels = BK channels (Homo sapiens, UniProt Q12791); details: background statement; cited from earlier work
BK channels, sequence (Q12791 whole entry): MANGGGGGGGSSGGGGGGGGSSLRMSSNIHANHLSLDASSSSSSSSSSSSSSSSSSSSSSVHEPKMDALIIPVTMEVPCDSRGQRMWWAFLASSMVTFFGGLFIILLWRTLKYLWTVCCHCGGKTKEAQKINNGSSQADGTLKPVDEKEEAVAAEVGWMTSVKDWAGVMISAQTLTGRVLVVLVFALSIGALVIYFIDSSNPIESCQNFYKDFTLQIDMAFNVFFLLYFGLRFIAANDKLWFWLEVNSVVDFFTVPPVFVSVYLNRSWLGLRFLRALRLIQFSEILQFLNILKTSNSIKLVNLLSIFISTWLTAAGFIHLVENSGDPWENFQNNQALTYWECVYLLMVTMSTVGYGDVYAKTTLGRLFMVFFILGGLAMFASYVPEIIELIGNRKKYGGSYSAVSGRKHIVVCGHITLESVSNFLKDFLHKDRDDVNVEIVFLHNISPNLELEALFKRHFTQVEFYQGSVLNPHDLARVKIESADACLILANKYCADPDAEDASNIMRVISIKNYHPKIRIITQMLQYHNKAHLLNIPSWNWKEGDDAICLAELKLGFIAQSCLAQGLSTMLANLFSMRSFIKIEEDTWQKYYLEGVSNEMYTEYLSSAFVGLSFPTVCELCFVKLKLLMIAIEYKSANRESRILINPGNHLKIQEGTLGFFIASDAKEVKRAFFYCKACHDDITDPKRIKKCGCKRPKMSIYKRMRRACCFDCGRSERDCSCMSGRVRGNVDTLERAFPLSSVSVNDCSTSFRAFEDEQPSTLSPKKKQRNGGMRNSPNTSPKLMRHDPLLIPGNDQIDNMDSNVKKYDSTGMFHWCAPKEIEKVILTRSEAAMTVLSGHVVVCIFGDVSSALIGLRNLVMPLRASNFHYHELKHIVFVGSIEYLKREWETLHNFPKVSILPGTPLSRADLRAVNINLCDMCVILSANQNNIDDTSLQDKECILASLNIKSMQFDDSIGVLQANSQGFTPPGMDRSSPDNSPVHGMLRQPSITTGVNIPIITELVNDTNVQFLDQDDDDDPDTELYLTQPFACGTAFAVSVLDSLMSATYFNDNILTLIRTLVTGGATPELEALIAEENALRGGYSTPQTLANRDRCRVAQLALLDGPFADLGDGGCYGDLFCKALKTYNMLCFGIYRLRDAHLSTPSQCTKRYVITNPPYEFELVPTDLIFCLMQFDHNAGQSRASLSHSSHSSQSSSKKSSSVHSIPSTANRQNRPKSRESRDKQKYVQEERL

KCNQ channels = details: background statement; cited from earlier work

Row | membrane potential after addition of compound (KCNQ4 [1]) [mV] | membrane potential after washout of compound (KCNQ4 [1]; after washout of 10 μM compound) [mV] | effect on KCNQ5 currents (KCNQ5; after washout of XE-991, FIG. 4) | activation of KCNQ4 currents (KCNQ4 [2]; 0.1, 0.3, 1, 3 and 10 μM, holding −90 mV, step to −40 mV, HEK-293 cells, FIG. 1) | reversibility of inhibition of KCNQ5 currents (KCNQ5; FIG. 4) | Structure (SMILES) | changes in IV relation and activation curve (KCNQ4 [2]; 3 μM, depolarising potential −120 mV to +40 mV, FIG. 2) | effect on BK channels (BK channels) | effect on KCNQ channels (KCNQ channels) | return of membrane potential upon washout (KCNQ4 [1]; after 10 μM compound)
1 | −83 | −69 | activation | dose-dependent activation | – | COc1ccc(Cl)cc1C1(F)C(=O)Nc2cc(C(F)(F)F)ccc21 (racemic) [Compound 1, (±)-3-(5-chloro-2-methoxyphenyl)-1,3-dihydro-3-fluoro-6-(trifluoromethyl)-2H-indol-2-one] | changes in IV relation and activation curve | – | – | –
2 | – | – | – | – | – | O=C1N(c2ccccc2)c2ccccc2C1(Cc1ccncc1)Cc1ccncc1 [Linopiridine] | – | no effect | potent KCNQ inhibiting compounds | –
3 | −12 | – | – | – | not fully reversible | O=C1c2ccccc2C(Cc2ccncc2)(Cc2ccncc2)c2ccccc21 [XE-991] | – | no effect | potent KCNQ inhibiting compounds | returned very slowly towards the control level
